# Laboratory results as given in ChEMBL document CHEMBL1781948, “Cytotoxic veraguamides, alkynyl bromide-containing cyclic depsipeptides from the marine cyanobacterium cf. Oscillatoria margaritifera” (2011).
# Activity calls are given as the source filed them. The rule behind the calls is not given here. Where a SMILES comes first, the peptide text is derived from it. [ ]: non-standard residue; d: D form. The star is where a group is joined. Hmpa(2S,3S) = CC[C@H](C)[C@H](O)C(=O)O; X1 = C[C@H](C(=O)*)[C@H](O)CCCC#CBr; NMeV = CN[C@H](C(=O)O)C(C)C; Hiv = CC(C)[C@H](O)C(=O)O
# Tested on: NCI-H460
# Test: Cytotoxicity against human H460 cells after 48 hrs by MTT assay
# Assay type: functional
Compound,"CC50 (NCI-H460, 48 h, read-out: LD50 (the source's name))",LD50
CC[C@H](C)[C@@H]1OC(=O)[C@H](C(C)C)N(C)C(=O)[C@H](C(C)C)NC(=O)[C@@H](C)[C@@H](CCCC#CBr)OC(=O)[C@H](C(C)C)N(C)C(=O)[C@@H]2CCCN2C1=O [VERAGUAMIDE A],141 nM,
CCOC(=O)[C@H](C(C)C)N(C)C(=O)[C@@H]1CCCN1C(=O)[C@@H](OC(=O)[C@H](C(C)C)N(C)C(=O)[C@@H](NC(=O)[C@@H](C)[C@H](O)CCCC#CBr)C(C)C)C(C)C (X1-V[NMeV][Hiv]P[NMeV]-OEt),,Active
CC(C)[C@@H]1NC(=O)[C@@H](C)[C@@H](CCCC#CBr)OC(=O)[C@H](C(C)C)N(C)C(=O)[C@@H]2CCCN2C(=O)[C@H](C(C)C)OC(=O)[C@H](C(C)C)N(C)C1=O,,Active
"CCOC(=O)[C@H](C(C)C)N(C)C(=O)[C@@H]1CCCN1C(=O)[C@@H](OC(=O)[C@H](C(C)C)N(C)C(=O)[C@@H](NC(=O)[C@@H](C)[C@H](O)CCCC#CBr)C(C)C)[C@@H](C)CC (X1-V[NMeV][Hmpa(2S,3S)]P[NMeV]-OEt)",,Active
C#CCCC[C@H]1OC(=O)[C@H](C(C)C)N(C)C(=O)[C@@H]2CCCN2C(=O)[C@H]([C@@H](C)CC)OC(=O)[C@H](C(C)C)N(C)C(=O)[C@H](C(C)C)NC(=O)[C@H]1C,,Active
